For four cell lines, relative viability results are on record in the supplement of paper PMC10307832.

Holding throughout (assay): relative viability (nuclei count vs DMSO), 5 days (fraction); higher = more cells survive
Compound in assay [1]: C1CC2=C(C1)C=C(C=C2)OC3=NC(=C4C(=N3)N(C=N4)CC5=CC=C(C=C5)C6=CC=CC=C6)N[C@@H](CC7=CC=CC=C7)CO [QS11] + CC(=O)Nc1cccc(-n2c(=O)n(C3CC3)c(=O)c3c(Nc4ccc(I)cc4F)n(C)c(=O)c(C)c32)c1 [Trametinib] (partner 0.02 µM)
The gist of the method: (§1)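 Relative viability equals treated-well nuclei counts divided by vehicle-well nuclei counts. Counts came from 4× images of lung cancer cell lines grown in 1536-well plates for 5 days after pin-tool dosing on the day after seeding. Dosing used one drug alone or a fixed anchor-drug dose plus five library-drug doses (not always all listed) in √10 steps, and values are medians of duplicate plates.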

Compound in assay [2]: C[As](C)SC[C@H](NC(=O)CC[C@H](N)C(=O)O)C(=O)NCC(=O)O [Darinaparsin] + CC1(C)CCC(c2ccc(Cl)cc2)=C(CN2CCN(c3ccc(C(=O)NS(=O)(=O)c4ccc(N[C@H](CCN5CCOCC5)CSc5ccccc5)c(S(=O)(=O)C(F)(F)F)c4)cc3)CC2)C1 [Navitoclax] (partner 0.5 µM)
In a few lines: as §1

Compound in assay [3]: C[As](C)SC[C@H](NC(=O)CC[C@H](N)C(=O)O)C(=O)NCC(=O)O [Darinaparsin] + N=C(N)NC(=N)NCCc1ccccc1 [Phenformin] (partner 250 µM)
In a few lines: as §1

Compound in assay [4]: C[As](C)SC[C@H](NC(=O)CC[C@H](N)C(=O)O)C(=O)NCC(=O)O [Darinaparsin] + O=C(c1cc(Cc2n[nH]c(=O)c3ccccc23)ccc1F)N1CCN(C(=O)C2CC2)CC1 [Olaparib] (partner 8 µM)
In a few lines: as §1

Turning to SK-LU-1, the relative viability came out at 0.443 in assay [1] (first compound 0.08 µM); 0.508 in assay [1] (first compound 0.253 µM); 0.441 in assay [1] (first compound 0.8 µM); 0.522 in assay [1] (first compound 2.53 µM); 0.55 in assay [1] (first compound 8 µM); 0.986 in assay [2] (first compound 0.08 µM). For the same cell line, the relative viability amounted to 0.807 in assay [2] (first compound 0.8 µM); 0.671 in assay [2] (first compound 2.53 µM); 1.02 in assay [2] (first compound 8 µM); 0.777 in assay [3] (first compound 0.08 µM); 0.417 in assay [3] (first compound 0.8 µM); 0.384 in assay [3] (first compound 2.53 µM). In addition, the relative viability in assay [3] (first compound 8 µM) was 0.743; in assay [4] (first compound 0.08 µM), 0.613; in assay [4] (first compound 0.8 µM) it was 0.431; in assay [4] (first compound 2.53 µM), 0.407; in assay [4] (first compound 8 µM), 0.562.
Consider SK-MES-1, for which the relative viability in assay [1] (first compound 0.08 µM) worked out at 0.519; in assay [1] (first compound 0.253 µM) it was 0.557; in assay [1] (first compound 0.8 µM), 0.451; in assay [1] (first compound 2.53 µM) it was 0.507; in assay [1] (first compound 8 µM), 0.527; in assay [2] (first compound 0.08 µM) it was 1.33. For the same cell line, the relative viability in assay [2] (first compound 0.8 µM) is 1.18; in assay [2] (first compound 2.53 µM), 1.17; in assay [2] (first compound 8 µM) it was 1.54; in assay [3] (first compound 0.08 µM), 0.783; in assay [3] (first compound 0.8 µM), 0.592; in assay [3] (first compound 2.53 µM), 0.594. Moreover, the relative viability in assay [3] (first compound 8 µM) stood at 0.667; in assay [4] (first compound 0.08 µM) it was 0.888; in assay [4] (first compound 0.8 µM), 0.66; in assay [4] (first compound 2.53 µM), 0.662; in assay [4] (first compound 8 µM) it was 0.474.
Take SW 1573: the relative viability in assay [1] (first compound 0.08 µM) came out at 0.542; in assay [1] (first compound 0.253 µM), 0.553; in assay [1] (first compound 0.8 µM) it was 0.519; in assay [1] (first compound 2.53 µM), 0.41; in assay [1] (first compound 8 µM), 0.365; in assay [2] (first compound 0.08 µM), 1.23. For the same cell line, the relative viability in assay [2] (first compound 0.8 µM) is 0.991; in assay [2] (first compound 2.53 µM), 1.01; in assay [2] (first compound 8 µM) it was 0.992; in assay [3] (first compound 0.08 µM), 0.438; in assay [3] (first compound 0.8 µM) it was 0.359; in assay [3] (first compound 2.53 µM) it was 0.378. Also, the relative viability in assay [3] (first compound 8 µM) is 0.37; in assay [4] (first compound 0.08 µM), 0.592; in assay [4] (first compound 0.8 µM) it was 0.493; in assay [4] (first compound 2.53 µM), 0.42; in assay [4] (first compound 8 µM), 0.431.
Regarding UMC-11, the relative viability was 0.603 in assay [1] (first compound 0.08 µM); 0.548 in assay [1] (first compound 0.253 µM); 0.618 in assay [1] (first compound 0.8 µM); 0.775 in assay [1] (first compound 2.53 µM); 0.898 in assay [1] (first compound 8 µM); 0.339 in assay [2] (first compound 0.08 µM). For the same cell line, the relative viability in assay [2] (first compound 0.8 µM) was determined as 0.313; in assay [2] (first compound 2.53 µM), 0.305; in assay [2] (first compound 8 µM), 0.311; in assay [3] (first compound 0.08 µM), 0.369; in assay [3] (first compound 0.8 µM) it was 0.341; in assay [3] (first compound 2.53 µM), 0.357. Further, the relative viability in assay [3] (first compound 8 µM) worked out at 0.325; in assay [4] (first compound 0.08 µM), 0.494; in assay [4] (first compound 0.8 µM) it was 0.347; in assay [4] (first compound 2.53 µM) it was 0.536; in assay [4] (first compound 8 µM) it was 0.346.
